Data set [1] deals with T1, 26S proteasome (Homo sapiens) (UniProt Q99460+P49721+P20618+P28074+P28062+P28065+P28072+O00487+P25786+P25787+P25788+P25789+P28066+P60900+O14818+Q8TAA3+P40306+A5LHX3+P49720+P28070+Q99436+Q16186+P35998+P62191+P43686+P62333+P17980+P62195+Q13200+O43242+O00232+O00231+Q15008+P51665+Q9UNM6+P55036+P48556+P60896). The settings on record: HeLa, 26 nM.
Description: Inhibition of 20S proteasome in human HeLa cells expressing GFP-tagged ubiquitin G76V mutant at 26 nM after 16 hrs by fluorescence assay
For another data set, the target named is 26S proteasome. Briefly: Inhibition of human 20S proteasome using Suc-LLVY-AMC as substrate preincubated for 30 mins followed by substrate addition measured after 90 mins by fluorescence assay. It counts as protein-complex assay.
The target of data set [2] is T1, 26S proteasome (Homo sapiens). Briefly: Inhibition of human 20S proteasome using Suc-LLVY-AMC as substrate assessed as decrease in enzyme velocity. The data set is classed as protein-complex assay.
Data set [3] has the same target. As to the kind of experiment: Inhibition of 20S proteasome in human HeLa cells expressing GFP-tagged ubiquitin G76V mutant at 23 uM after 16 hrs by fluorescence assay. It counts as cell-based.
A short description of data set [4]: Half life in 100 fold molar excess of deuterated water in DMSO at 37 degC by [1H]-NMR analysis. The data set is classed as physicochemical.

Molecules are shown by their SMILES. pIC50: −log10 of the molar value. The source made the active and inactive calls.

In general, pIC50 refers to the IC50 on a negative log10 scale, so that one unit is a factor of ten. A lower pIC50 goes with a large IC50. Usually half-life stands for the time needed for the level to fall by half in the phase considered.

On to `CC(C)C[C@H](NC(=O)[C@H](Cc1ccccc1)NC(=O)c1cnccn1)B(O)O` [BORTEZOMIB], for which the inhibition entry in data set [1] was “Active”.
In turn, `CC(C)C[C@H](NC(=O)[C@H](Cc1ccccc1)NC(=O)c1cnccn1)c1nsc(=O)o1` showed a pIC50 on 26S proteasome of 3.97. For the same molecule, the inhibition result in data set [2] is “Dose-dependent effect”. For the same molecule, the inhibition entry in data set [3] is “Active”. In data set [4], this molecule showed a half-life of 156 h.
On to `CC(C)C[C@@H](NC(=O)[C@H](Cc1ccccc1)NC(=O)c1cnccn1)c1nsc(=O)o1`, for which the pIC50 on 26S proteasome is 3.65. For the same molecule, in data set [2], the inhibition entry was “Dose-dependent effect”. Further, the inhibition entry in data set [3] is “inactive”.
In turn, `COc1cccc(-c2nsc(=O)o2)c1` gave a half-life in data set [4] of 20 h.

Values taken from ChEMBL document CHEMBL3217678 (Medchemcomm, 2011).
